# Data: patent US20250134887A1, “METHODS OF TREATING PROSTATE CANCER” (AstraZeneca AB, priority 2022, published 2025)
# System: patients with mCRPC
# Assay: PROpel (NCT03732820) double-blind randomized phase III trial: efficacy and patient-reported outcomes
# Type: in vivo, human
# Source text: The primary objective was efficacy as assessed by investigator-assessed imaging-based progression-free survival.
# Patient population. Eligible patients were 18 years of age (or 19 years of age in South Korea) and had histologically or cytologically confirmed prostate adenocarcinoma with at least one documented metastatic lesion on either a bone scan, computed tomography, or magnetic resonance imaging scan. […] Docetaxel during neoadjuvant/adjuvant treatment for localized prostate cancer and the metastatic hormone-sensitive (mHSPC) stage of disease was permitted, as long as no signs of failure or disease progression occurred during or immediately after such treatment. Prior to mCRPC stage, treatment with second-generation antiandrogen agents (except abiraterone) without PSA progression/clinical progression/radiographic progression during treatment was allowed, provided the treatment was stopped at least 12 months before randomisation.
# Trial design and interventions. This was a double-blind, placebo-controlled, phase Ill trial. Eligible patients were randomized (1:1) to treatment with abiraterone acetate (1000 mg once daily) in combination with either olaparib (300 mg twice daily) or placebo. All patients received prednisone or prednisolone (5 mg twice daily) as per the abiraterone acetate label requirement. Randomization was stratified by distant metastasis type (bone only/visceral/other) at baseline and by docetaxel treatment at the mHSPC stage of disease (yes or no). Study treatment continued until objective imaging-based progressive disease assessed by investigator (using Response Evaluation Criteria in Solid Tumors [RECIST 1.1] for soft tissue lesions and Prostate Cancer Working Group-3 [PCWG-3] criteria for bone lesions), unacceptable toxicity, or withdrawal of consent. Following objective disease progression, further treatment options were at the discretion of the investigator. […] Crossover from placebo to receive olaparib in combination with abiraterone acetate was not allowed.
# Endpoints. The primary endpoint was imaging-based progression-free survival or death from any cause in the absence of disease progression. Sensitivity analysis by blinded independent central review and exploratory subgroup analysis of investigator-assessed imaging-based progression-free survival to assess consistency of treatment effect across potential prognostic factors were prespecified. Subgroups included HRRm status.
# A key secondary endpoint was overall survival. Other secondary endpoints included time to first subsequent therapy or death (TFST), time to second progression or death (PFS2) and patient-reported outcomes. Further exploratory endpoints were objective response rate (ORR), prostate-specific antigen (PSA) response rate and time to PSA progression.
# Statistical analysis. Efficacy was analyzed for the intention-to-treat population and safety was analyzed for all patients who received any amount of abiraterone acetate, olaparib, or placebo.
# The first planned interim analysis of the primary endpoint of imaging-based progression-free survival is reported in this example. Imaging-based progression-free survival will be reported subsequently at a second data cutoff. Overall survival will be formally tested at all points, including a third data cutoff.
# With a sample size of 796 patients, the first interim analysis was planned to occur when there had been approximately 379 progression or death events (47.6% maturity), to provide 94.1% power at a one-sided alpha of 0.014 to show a statistically significant difference in imaging-based progression-free survival between the trial arms, assuming a hazard ratio for progression or death of 0.68.
# A multiple testing procedure controlled the overall one-sided type 1 error rate of 2.5%.
# [1] = rPFS investigator assessment, FAS, All patients
# [2] = rPFS, subgroup Age at randomisation: <65 years
# [3] = rPFS, subgroup Age at randomisation: ≥65 years
# [4] = rPFS, subgroup Docetaxel treatment at mHSPC stage
# [5] = rPFS, subgroup HRRm Unknown, ctDNA test
# [6] = rPFS, subgroup HRRm Unknown, tumour tissue test
# [7] = rPFS, subgroup HRRm, ctDNA test (FoundationOne Liquid CDx)
# [8] = rPFS, subgroup HRRm, tumour tissue test (FoundationOne CDx)
# [9] = rPFS, subgroup No docetaxel treatment at mHSPC stage
# [10] = rPFS, subgroup Non-HRRm, ctDNA test
# [11] = rPFS, subgroup Non-HRRm, tumour tissue test
# [12] = rPFS, subgroup Site of distant metastases: Bone only
# [13] = rPFS, subgroup Site of distant metastases: Other
# [14] = rPFS, subgroup Site of distant metastases: Visceral
compound,measurement,setting,value
"CC(=O)O[C@H]1CC[C@@]2(C)C(=CC[C@@H]3[C@@H]2CC[C@]2(C)C(c4cccnc4)=CC[C@@H]32)C1 [abiraterone acetate and placebo, (3β)-17-(3-pyridinyl) androsta-5,16-dien-3-yl acetate]",second progression or death events,"PFS2, number of events",94
same,patients who received a first subsequent therapy,"TFST, number of patients",221
same,Confirmed PSA response,"human, in vivo",69.2%
same,Median time to PSA progression,"human, in vivo",12.0 months
same,median imaging-based progression-free survival by investigator assessment,"intention-to-treat, first interim analysis, data cutoff Jul. 30, 2021",16.6 months
same,Median rPFS,"investigator assessment, FAS, All patients",16.59 months
same,"progression or death events, blinded independent central review",number of events,218
same,"progression or death events, investigator assessment",number of events,226
same,"ORR, number of patients with response",of 161 patients (olaparib arm) / of 160 patients (placebo arm) with measurable disease at baseline,77
same,deaths,"overall survival analysis, number of deaths",121
same,ORR,patients with measurable disease at baseline,48.1%
same,median imaging-based progression-free survival by blinded independent central review,prespecified sensitivity analysis,16.4 months
same,Number of events/total number of patients,[1],226/397
same,Number of events/total number of patients (%),[1],(56.9) %
same,Number of events/total number of patients,[2],59/97
same,Number of events/total number of patients (%),[2],(60.8) %
same,Number of events/total number of patients,[3],167/300
same,Number of events/total number of patients (%),[3],(55.7) %
same,Number of events/total number of patients,[4],56/94
same,Number of events/total number of patients (%),[4],(59.6) %
same,Number of events/total number of patients,[5],13/30
same,Number of events/total number of patients (%),[5],(43.3) %
same,Number of events/total number of patients,[6],76/131
same,Number of events/total number of patients (%),[6],(58.0) %
same,Number of events/total number of patients,[7],66/100
same,Number of events/total number of patients (%),[7],(66.0) %
same,Number of events/total number of patients,[8],37/56
same,Number of events/total number of patients (%),[8],(66.1) %
same,Number of events/total number of patients,[9],170/303
same,Number of events/total number of patients (%),[9],(56.1) %
same,Number of events/total number of patients,[10],147/267
same,Number of events/total number of patients (%),[10],(55.1) %
same,Number of events/total number of patients,[11],113/210
same,Number of events/total number of patients (%),[11],(53.8) %
same,Number of events/total number of patients,[12],102/217
same,Number of events/total number of patients (%),[12],(47.0) %
same,Number of events/total number of patients,[13],84/128
same,Number of events/total number of patients (%),[13],(65.6) %
same,Number of events/total number of patients,[14],40/52
same,Number of events/total number of patients (%),[14],(76.9) %
same,Median rPFS,subgroup Age at randomisation: <65 years,16.36 months
same,Median rPFS,subgroup Age at randomisation: ≥65 years,16.66 months
same,Median rPFS,subgroup Docetaxel treatment at mHSPC stage,13.83 months
same,Median rPFS,"subgroup HRRm Unknown, tumour tissue test",16.39 months
same,Median rPFS,"subgroup HRRm, ctDNA test (FoundationOne Liquid CDx)",13.63 months
same,Median rPFS,"subgroup HRRm, tumour tissue test (FoundationOne CDx)",16.62 months
same,Median rPFS,subgroup No docetaxel treatment at mHSPC stage,16.82 months
same,Median rPFS,"subgroup Non-HRRm, ctDNA test",18.96 months
same,Median rPFS,"subgroup Non-HRRm, tumour tissue test",16.59 months
same,Median rPFS,subgroup Site of distant metastases: Bone only,22.18 months
same,Median rPFS,subgroup Site of distant metastases: Other,13.70 months
same,Median rPFS,subgroup Site of distant metastases: Visceral,10.91 months
